For experiment [1], the system named is Renca cells. In words: mGI-101 and Lenvatinib in Renca allotransplanted tumor model. Format: in vivo, BALB/c mice. Here is the method: Renca cells were purchased from ATCC (USA) and cultured in RPMI1640 medium (Gibco) containing 10% FBS (Gibco) and 1% antibiotic/antifungal agent (Gibco). The cultured cells were harvested using trypsin (Gibco) and then suspended in PBS. In order to establish an allotransplanted tumor model, 5×10^6 Renca cells were subcutaneously injected into the back of BALB/c female mice (8-week-old).
A certain period of time after cell inoculation of the tumor grafts of the mice, the tumor volume was measured for animals with no abnormalities in the health condition of the animals, and the mice were randomly selected and assigned, each group including 10 mice.
The death of the mouse, the type of general symptoms, the date of onset, and the severity of symptoms were observed once a day during the test period, and recorded for each subject.
The tumor volume before administration of each subject was set as the value measured at the time of grouping, and the anti-tumor efficacy was evaluated as compared with the vehicle control.
All statistical calculations were performed using Prism 8.0 (Graph Pad Software Inc, USA). The comparison of tumor volume measurements was made through two-way analysis of variance followed by Tukey's multiple comparison test. A p value of less than 0.05 was considered significant.

The test system of experiment [2] is MC38 cells. In words: mGI-101 and DMXAA in MC38 allotransplanted tumor model. Format: in vivo, C57BL/6 mice. The settings on record: day 60 after tumor injection; mGI-101 6 mg/kg i.p. BIW, DMXAA 450 μg I.T.; 5 mice per group. Here is the method: In order to establish an allotransplanted tumor model, 5×10^5 of MC38 cells were subcutaneously injected into C57BL/6 mice. The tumor grafts of the mice were identified to be a size of 100-200 mm^3 about day 10 after cell inoculation, and the mice were assigned, each group including 5 mice.
The size of the MC38 solid cancer was measured three times a week during the observation period, and the major axis (maximum length, L) and minor axis (perpendicular width, W) of the tumor were measured using a caliper, and the tumor volume (TV) was calculated by substituting them into the following equation, and once the tumor size was no less than 2 cm, the mice were sacrificed. TV (mm^3)=(W^2×L)/2 [Equation 1]

The subject of experiment [3] is CT-26 cancer cell line. The experiment can be described thus: mGI101 in mice transplanted with CT-26 (Exp. Ex. 15).
Experimental: BALB/c mice (female, 7-week-old) purchased from Orient Bio were subjected to an acclimation period of 7 days. Then, 5×10^6 cells of CT-26 cancer cell line (ATCC, USA) were mixed with 0.05 ml of […] ™ matrix phenol red-free (BD), and allotransplantation of the mixture was performed by subcutaneous administration at 0.1 ml in the right dorsal region of the mice. A certain period of time after the cancer cell transplantation, the tumor volume was measured and subjects that reached about 28 mm^3 were selected, and then the selected mice were grouped evenly based on tumor size and body weight, each group including 10 mice. Thereafter, using a disposable syringe (31G, 1 ml), hIgG4 was administered at a dose of 6 mg/kg to a negative control. For experimental groups, mGI101 at a dose of 3 mg/kg, 6 mg/kg, or 12 mg/kg was administered intravenously thereto. A total of three administrations were given once every three days after the first administration. The tumor size was measured daily.
In experiment [4] the target is T1, IL-2Rβ (Homo sapiens, UniProt P14784).
T1 construct: purchased Acro CD2-H5221
T1 sequence (P14784 27-551): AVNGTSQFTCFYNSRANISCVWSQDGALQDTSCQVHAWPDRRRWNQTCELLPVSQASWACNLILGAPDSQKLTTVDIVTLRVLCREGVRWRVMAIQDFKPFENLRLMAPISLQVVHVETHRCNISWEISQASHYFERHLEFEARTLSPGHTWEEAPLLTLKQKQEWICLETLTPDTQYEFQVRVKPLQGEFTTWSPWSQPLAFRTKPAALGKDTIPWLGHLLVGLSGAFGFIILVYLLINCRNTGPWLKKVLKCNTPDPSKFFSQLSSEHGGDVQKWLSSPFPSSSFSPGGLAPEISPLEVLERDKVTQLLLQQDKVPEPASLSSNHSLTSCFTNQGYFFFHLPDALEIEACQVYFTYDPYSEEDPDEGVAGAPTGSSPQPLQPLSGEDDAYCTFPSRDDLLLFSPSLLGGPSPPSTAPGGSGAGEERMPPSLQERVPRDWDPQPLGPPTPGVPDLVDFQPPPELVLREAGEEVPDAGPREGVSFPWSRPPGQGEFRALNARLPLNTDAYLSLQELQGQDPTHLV
The experiment can be described thus: Binding to IL-2Rβ (Octet, Ni-NTA biosensor). The settings on record: as compared with GI101w and Proleukin. Here is the method: The binding ability for IL-2Rα was measured using the AR2G biosensor, and the binding ability for IL-2Rβ was measured using the Ni-NTA biosensors (Nickel charged Tris-NTA, Ni-NTA Biosensors, ForteBio, 18-5101).
Meanwhile, a ligand (IL-2Rβ-His Tag, Acro, Cat: CD2-H5221) to be attached to the Ni-NTA biosensor was diluted with 1×Ni-NTA kinetic buffer to a concentration of 5 μg/ml. The diluted ligand was loaded on the Ni-NTA biosensor for 600 seconds and fixed.
Thereafter, GI101, GI101w, or Proleukin (Novartis, hIL-2), at various concentrations, to be attached to the ligand was loaded thereon for 300 seconds. Then, binding thereof was measured and dissociation thereof was also measured for 300 seconds. Binding kinetics analysis was performed using Octet Data Analysis HT software ver. 10 provided by Pall Corporation. The results are illustrated in FIGS. 22 to 24.

The test system of experiment [5] is CD8+ T cells and NK cells. In words: Proliferation of CD8+ T cells and NK cells in mouse spleen. The settings on record: 40.5 μg i.p., spleen five days after injection; compared with GI101w. Format: in vivo, C57BL/6 mice. As to the method: 7-week-old C57BL/6 mice purchased from Orient Bio (Korea) were divided into 3 groups, each group including 3 mice, and PBS, GI101, or GI101w was injected intraperitoneally thereinto. Here, GI101 and GI101w were respectively prepared to be at 40.5 μg in 200 μl of PBS, and injected intraperitoneally thereinto. Five days after the injection, the spleens were removed from the mice of each group. The cells were isolated therefrom, and the total number of cells was measured using a hematocytometer. Splenocytes were examined for proportions of CD8+ T cells and NK cells therein, with FACS analysis using staining with APC-CD3ε antibody (Biolegend; 145-2C11), PE-NK1.1 antibody (Biolegend; PK136), and Pacific blue-CD8α antibody (BD; 53-6.7). As such, the numbers of CD8+ T cells and NK cells present in the spleen were calculated.

In experiment [6] the test system is immune cells in cancer tissues. The experiment can be described thus: Immune cell analysis in LL/2 cancer tissue (FACS). Type of experiment: in vivo, C57BL/6 mice. Here is the method:
The mice of each group in Experimental Example 16.1 were sacrificed when the tumor volume reached an average of 200 mm^3, and cancer tissues were collected.
Thereafter, FACS analysis was performed in the same manner as Experimental Example 16.2. to analyze immune cells in the cancer tissues.

[7] abbreviates: mGI-101 twice a week (BIW), Lenvatinib daily, 10 mice per group.

The text below walks through data of US11857601B2, “Pharmaceutical composition for cancer treatment comprising fusion protein including IL-2 protein and CD80 protein and anticancer drug” (GI INNOVATION, INC., priority 2020, dated 2024).

“mGI101: fusion protein: mouse CD80, Ig hinge, Fc domain, linker, IL-2 variant (2M) (R38A, F42A); SEQ ID NO: 15”: the “number of mice with tumor growth inhibition rate of 30% or more” value in experiment [1] (mGI-101 alone once a week) is 5 mice; in experiment [1] (setting [7]) it was 3 mice. Moreover, the entries for the “number of mice with tumor growth inhibition rate of 50% or more” value in experiment [1] (mGI-101 alone once a week) and in experiment [1] (setting [7]) were 2 mice and 1 mice, respectively. The “number of mice with tumor growth inhibition rate of 80% or more” value was 1 mice in experiment [1] (mGI-101 alone once a week) and “no mouse” in experiment [1] (setting [7]). Besides, the survival rate is recorded as 20% in experiment [2] and “significant improvement” in experiment [3] (6 mg/kg i.v., vs negative control). In addition, the Tumor growth inhibition result in experiment [3] (6 mg/kg and 12 mg/kg i.v., three administrations, vs negative control (hIgG4)) was “significant tumor growth inhibition”.
For “GI101: fusion protein: human CD80 fragment, Ig hinge, Fc domain, linker, IL-2 variant (2M) (R38A, F42A); SEQ ID NO: 9”, the “binding ability for IL-2Rβ” value in experiment [4] is listed as “high binding ability”. Also, in experiment [5], the “proliferation of CD8+ T cells and NK cells in vivo” value is on record as “activated proliferation”. The “CD8+ T cells in cancer tissue” value in experiment [6] (0.1 mg/kg, compared with anti-PD-1 antibody alone) is “significant increase”. In experiment [6] (all GI101 groups), the “level of CD86 expression in macrophages and dendritic cells” value is recorded as “increased level”. The “level of expression of IFN-γ” value in experiment [6] (all GI101 groups, vs negative control) is “significantly increased level”.
